Columns and labels:
[1] = tested on: collagen induced arthritis (CIA) in DBA/1 mice; assay: Collagen induced arthritis (CIA) in DBA/1 mice, clinical score; type: in vivo, mouse; conditions: for decrease of mean clinical score compared with control group: as from day 5 post-treatment
From the text: Induction of collagen induced arthritis (CIA) in DBA/1 mice treated with oral 2,4-D. Forty DBA/1 mice (8-12 weeks of age; 20 males and 20 females) were obtained from the Center for Experimental Animals in Beijing, China. The CIA model was established according to the standard Hooke Protocol (accessible at https://hookelabs.com/protocols/cialnduction_DBA1.html). Complete Freund's adjuvant (CFA) and incomplete Freund's adjuvant (IFA) were purchased from Hooke Laboratories. 35 days after immunization, the 40 immunized mice were distributed randomly into 4 groups (10 controls, 10 treated with 0.2 mg daily oral 2,4-D, 10 treated with 1 mg daily oral 2,4-D for 15 days). All animals were followed for an additional 15 days post-treatment.
CIA scoring. CIA is scored on a scale of 0 to 16 (0 to 4 for each paw, adding the scores for all 4 paws), using the following criteria:
Statistical analysis. Data are presented as the mean±SEM for the in vivo animal study. Statistical analysis was performed using Student's t-test (paired 2-sample testing).

[2] = tested on: IL-17; assay: IL-17 protein in culture supernatant of RA-patient synovial cells; type: cell-based, human; conditions: increasing concentrations
[3] = tested on: IL-23; assay: IL-23 protein in culture supernatant of RA-patient synovial cells; type: cell-based, human; conditions: increasing concentrations
[4] = tested on: IL-17; assay: IL-17A production in anti-CD3/CD28-stimulated mouse spleen cells (ELISA); type: cell-based; conditions: for production and release of IL-17 in supernatant: 72 h
Protocol: Briefly, before the experiment, 48-well plates were coated with 150 μl/well hamster anti-mouse CD3 (Clone 145-2C11, NA/LE, BD PHM, USA) at a concentration of 10 μg/ml and incubated overnight at 4° C. The next day, a C57BL/6 mouse was euthanized by cervical dislocation, and its spleen was aseptically dissected using sterile techniques. The harvested spleen was placed in a small Petri dish containing 10 ml of ice-cold PBS/FBS, ground using 2 frosted microscope slides, and filtered through a piece of 40 μm nylon material to yield a single cell suspension. Thereafter, the spleen cell suspension was carefully dispensed onto mouse lymphocyte separation medium (TBD Science Inc, Tianjin, China) and the lymphocytes were collected after density gradient centrifugation. After washing and cell counting, cell density was adjusted to 1 million cells/mL with RPMI 1640 (Gibco) plus 10% FCS and 1 μg/mL anti-mouse CD28 (BD PHM). […] After stimulation for 72 hours with anti-CD3 and anti-CD28 monoclonal antibodies, culture supernatants were collected and IL-17A measured with an IL-17A mouse ELISA kit (Thermo Fisher Scientific Inc.) according to the manufacturer's instructions. Cell count and viability were also evaluated with 0.4% trypan blue (Thermo Fisher Scientific Inc.) staining.

[5] = tested on: immune cells from the peritoneal cavity; assay: Endometriosis mouse model, immune cell proportions of the peritoneal cavity (flow cytometry); type: in vivo; conditions: 50 mg/kg/day, 5 times a week, 6 weeks
Protocol: Experimental design. Balb/C female mice (10 weeks old) were habituated for 3 days to take a jelly containing (group EDT+2,4D) or not (groups No EDT and EDT+Vehicle) the compound. Surgical implantation of endometrial tissue from syngenic female in peritoneum, was performed at day 0 for groups EDT+Vehicle and EDT+2,4D. […] The vehicle or treatment was then given 5 times a week (50 mg/kg/day) during 6 weeks. Mice were then sacrificed and the peritoneal inflammation was assessed. All the details of the protocol are depicted in FIG. 27. Cytokine measurement in cell-free peritoneal lavage. After mice were euthanized, 5 mL of PBS was injected into the peritoneal cavity and the diluted peritoneal fluid containing the cells was then retrieved. The cells were pelleted by centrifugation at 500×g 4° C. and the supernatant (cell-free peritoneal fluid) was frozen at −80° C. for subsequent cytokine concentration measurement by ELISA. Cytokine concentration was assessed by ELISA kit in the peritoneal fluid (ThermoFisher, Mouse IL-1β, IL6 and TNFalpha Uncoated ELISA). […] The optical density was read with the Clariostar Plus Microplate Reader (BMG LABTECH), through the Clario software. Concentrations were calculated from a standard curve according to the manufacturer's protocol. Phenotypic study of immune cells from the peritoneal cavity assessed by flow cytometry. The pelleted peritoneal cells were resuspended in PBS-2% FBS and counted. One million cells were stained with the following fluorophore-conjugated antibodies purchased from BioLegend: CD45 BV510, CD11b APC-Cy7, CD11c PE, F4/80 BV711, CD80 PE Cy5, CD206 AF647, Ly-6C, PE-Cy7, CCR2 BV786 et CXCR4 BV421, CD45R/B220 PE Texas-Red, CD3E FITC, NK1.1 BV605 and CD69 PerCP-Cy5.5, Zombie-UV. Cells were incubated 20 min in the dark at 4° C., washed with PBS-2% FBS, and were fixed with paraformaldehyde 4% in 5 mL round-bottom polystyrene tubes (Falcon™ 352054). Compensation was adjusted with Ultracomp beads (ThermoFisher). […] All data were collected on LSR Fortessa flow cytometer (BD Bioscience, USA) and analyzed with FlowJo software. […]

## COc1cc(O)c(OC)c(O)c1C(=O)/C=C/c1ccccc1 [2,4-D, 2′,4′-dihydroxy-3′,6′-dimethoxychalcone]
[1]; high dose 1 mg per day oral
  decrease of mean clinical score compared with control group: 2- to 7 fold
[1]; high dose, 15 days after withdrawal
  suppression of CIA after withdrawal of treatment: maintained
[1]; low dose 0.2 mg per day oral
  decrease of mean clinical score compared with control group: 2- to 3 fold
[2]
  concentration of IL-17 protein in the culture supernatant: significantly inhibited
[3]
  concentration of IL-23 protein in the culture supernatant: significantly inhibited
[4]; 1 μg/ml
  production and release of IL-17 in supernatant: significantly suppressed
[4]; 5 μg/ml
  production and release of IL-17 in supernatant: significantly suppressed
[4]; recombinant mouse IL-23 5 ng/ml
  suppression of IL-17 on adding recombinant mouse IL-23: completely reversed
[5]
  global T cell proportion: did not affect
  proportion of NK cells amongst the peritoneal cells: significantly reduced
  proportion of macrophages: not changed

— patent US20240335395A1, “COMPOSITIONS AND METHODS FOR PREVENTING AND/OR TREATING DISEASE ASSOCIATED WITH IL-23 EXPRESSION” (ALLSPIM, priority 2021, published 2024)
